In paper PMC11898488, “A2A Adenosine Receptor Antagonists and Their Efficacy in Rat Models of Parkinson’s Disease” (Cells, 2025):
“Also recorded” adds a separate entry of the source.

Key:
human A2AAR = molecular target: T1, human A2AAR (Homo sapiens, UniProt P29274); assay: GloSensor cAMP assay in CHO cells expressing human A2AAR; format: cell-based; conditions: for cAMP production when tested alone (agonist behavior): A2AAR transfected CHO cells, compound alone, in comparison with NECA; for IC50: CHO cells expressing hA2AARs, GloSensor cAMP assay, mean ± standard error, read-out: IC50, inhibition of NECA-induced cAMP production
T1 construct: expressed in transfected cells; host or cells: CHO cells, crude membrane fractions
T1 sequence (P29274 whole entry): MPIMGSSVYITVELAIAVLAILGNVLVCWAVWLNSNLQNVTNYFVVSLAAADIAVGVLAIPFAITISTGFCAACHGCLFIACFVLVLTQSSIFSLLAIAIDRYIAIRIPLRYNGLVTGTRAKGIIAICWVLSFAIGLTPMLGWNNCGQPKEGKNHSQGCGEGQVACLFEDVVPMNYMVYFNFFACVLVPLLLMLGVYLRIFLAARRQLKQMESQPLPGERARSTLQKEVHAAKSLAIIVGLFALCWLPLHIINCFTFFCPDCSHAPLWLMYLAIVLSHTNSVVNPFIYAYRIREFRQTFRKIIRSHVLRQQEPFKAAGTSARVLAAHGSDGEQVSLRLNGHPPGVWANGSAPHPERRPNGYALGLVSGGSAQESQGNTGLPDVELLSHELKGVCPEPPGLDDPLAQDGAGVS
Procedure: The performed GloSensorÏ cAMP assay is a non-radioactive method that offers a simple and powerful approach to monitor G-protein coupled receptor (GPCR) activity through change in the intracellular cAMP concentration.
Cell culture: CHO cells stably expressing human A2AAR were grown adherently and maintained in Dulbecco’s modified Eagle’s medium with nutrient mixture F12 (DMEM/F12 with phenol red), supplemented with 10% fetal bovine serum (FBS), 100 U mL^−1 penicillin, 100 µg mL^−1 streptomycin, 2.5 µg mL^−1 amphotericin, 1 mM sodium pyruvate and 0.1 mg mL^−1 geneticin (G418), at 37 °C and aerated with 5% CO2:95% […]. Cells were grown to approximately 70–80% confluence, and transient transfection with a plasmid encoding the biosensor was performed.
GloSensorÏ cAMP assay: Cells were harvested in CO2-independent medium and were counted in a Neubauer chamber. The desired number of cells was incubated in equilibration medium containing a 3% v/v GloSensor^TM cAMP reagent stock solution, 10% FBS, and 87% CO2 independent medium. After 2 h of incubation, the cells were dispensed in the wells of a 384-well plate and, when a steady-state basal signal was obtained, the NECA referent agonist or the understudy compounds, at different concentrations, were added. […] The antagonist profile was evaluated by assessing their ability to counteract an agonist-induced increase in cAMP accumulation. The cells were incubated in the reaction medium (10 min at room temperature) with different understudy molecule concentrations and then treated with NECA. After 10 min, various luminescence reads were performed at different incubation times.
Statistical analysis: Responses were expressed as a percentage of the maximal relative luminescence units (RLU). Concentration–response curves were fitted by a nonlinear regression with the Prism 4.0 program (GraphPAD Software, San Diego, CA, USA). To quantify the NECA agonist potency, the EC50 value was calculated. The EC50 value is the concentration of agonists required to produce 50% of the maximum effect. To evaluate the antagonist profile, the IC50 values were determined. The IC50 value is the concentration of antagonists that produces a 50% inhibition of the agonist effect. Each concentration was tested three times in triplicate, and the values are given as the mean ± standard error.

human A2BAR = molecular target: T2, human A2BAR (Homo sapiens, UniProt P29275); assay: Inhibition of NECA-stimulated adenylyl cyclase activity at human A2BAR; format: biochemical; conditions: inhibition of NECA-stimulated AC activity, CHO cells expressing human A2BAR; geometric mean with 95% confidence limits; read-out: IC50 A2B
T2 construct: expressed in transfected cells; host or cells: CHO cells, crude membrane fractions
T2 sequence (P29275 1-332): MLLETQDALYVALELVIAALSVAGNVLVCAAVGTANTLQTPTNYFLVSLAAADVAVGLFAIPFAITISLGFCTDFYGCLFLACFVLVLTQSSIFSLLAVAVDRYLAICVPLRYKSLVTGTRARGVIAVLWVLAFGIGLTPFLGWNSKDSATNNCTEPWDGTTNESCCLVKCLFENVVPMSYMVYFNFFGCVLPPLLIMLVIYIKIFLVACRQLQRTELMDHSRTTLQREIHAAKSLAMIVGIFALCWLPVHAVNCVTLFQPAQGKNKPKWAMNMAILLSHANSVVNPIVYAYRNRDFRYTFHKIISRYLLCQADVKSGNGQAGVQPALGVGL
Procedure: (§1) CHO cells stably transfected with human ARs were grown adherently and maintained in Dulbecco’s Modified Eagles Medium with nutrient mixture F12 (DMEM/F12) without nucleosides, containing 10% fetal calf serum, penicillin (100 U/mL), streptomycin (100 μg/mL), L-glutamine (2 mM), and Geneticin (G-418, 0.2 mg/mL) at 37 °C in 5% CO2/95% air, as described earlier. For radioligand binding studies and measurement of adenylyl cyclase activity, crude membrane fractions were prepared from fresh or frozen cells with two different protocols described earlier. The determination of adenylyl cyclase activity followed the procedure described earlier. IC50 values for the inhibition of adenylyl cyclase stimulated (in the case of A2BAR) with 5 μM NECA were calculated with the Hill equation and converted to Ki values with the Cheng and Prusoff equation [32].
(§2) [^3H]CCPA (2-chloro-N^6-cyclopentylAdo) and [^3H]NECA (5′-N-ethylcarboxamidoAdo) were used as specific radioligands at A1ARand A2A / A3 ARs, respectively. Furthermore, the ability of the same compounds to inhibit NECA-stimulated adenylyl cyclase activity was evaluated at the A2BAR subtype. The results of the binding studies (A1, A2A, and A3 ARs) and functional data (A2BAR) are reported in Table 1 as Ki or IC50 values in nM, together with the data on the reference compounds 1–3.

human A1AR = molecular target: T3, human A1AR (Homo sapiens, UniProt P30542); assay: Radioligand binding, displacement of [3H]CCPA at human A1AR in CHO cells; conditions: [3H]-CCPA displacement, geometric mean with 95% confidence limits, read-out: Ki A1
T3 construct: expressed in transfected cells; host or cells: CHO cells, crude membrane fractions
T3 sequence (P30542 1-326): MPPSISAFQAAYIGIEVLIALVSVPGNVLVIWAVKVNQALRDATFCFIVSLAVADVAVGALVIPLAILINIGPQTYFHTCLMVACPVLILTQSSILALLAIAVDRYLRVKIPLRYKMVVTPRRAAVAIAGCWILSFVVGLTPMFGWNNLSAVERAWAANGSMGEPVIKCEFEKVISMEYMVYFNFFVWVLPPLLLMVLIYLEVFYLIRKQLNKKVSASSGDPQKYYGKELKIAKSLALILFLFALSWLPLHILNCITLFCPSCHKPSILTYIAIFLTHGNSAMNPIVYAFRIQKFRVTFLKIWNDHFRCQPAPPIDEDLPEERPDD
Procedure: (§3) The radioligand binding experiments were carried out exactly as described previously. For A1AR binding, 1 nM [^3H]CCPA was used as a radioligand, whereas 30 and 10 nM [^3H]NECA were used for A2A and A3 ARs, respectively. Nonspecific binding was determined in the presence of 1 mM theophylline (A1AR) or […] R-PIA (A2A and A3 ARs). Ki values were calculated from competition curves by nonlinear curve fitting with the program SCTFIT [31].
as §1, §2

human A3AR = molecular target: T4, human A3AR (Homo sapiens, UniProt P0DMS8); assay: Radioligand binding, displacement of [3H]NECA at human A3AR in CHO cells; conditions: [3H]-NECA displacement, geometric mean with 95% confidence limits, read-out: Ki A3
T4 construct: expressed in transfected cells; host or cells: CHO cells, crude membrane fractions
T4 sequence (P0DMS8 1-318): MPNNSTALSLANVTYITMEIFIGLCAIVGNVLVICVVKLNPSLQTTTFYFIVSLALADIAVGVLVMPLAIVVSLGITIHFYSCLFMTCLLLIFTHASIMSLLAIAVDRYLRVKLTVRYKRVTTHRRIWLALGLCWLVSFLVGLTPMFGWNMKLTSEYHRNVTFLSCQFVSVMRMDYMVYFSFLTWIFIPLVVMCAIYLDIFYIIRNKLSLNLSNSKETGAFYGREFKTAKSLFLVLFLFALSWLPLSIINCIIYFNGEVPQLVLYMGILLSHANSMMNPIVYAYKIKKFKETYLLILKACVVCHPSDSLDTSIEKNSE
Procedure: as §3, §1, §2

Row | SMILES | cAMP production when tested alone (agonist behavior) (human A2AAR) | IC50 (human A2AAR) | IC50 (human A2BAR) | Ki (human A1AR) | Ki (human A3AR)
1 | CCn1c(Br)nc2c(N)nc(OCCc3ccccc3)nc21 [Compound 1, 8-bromo-9-ethyl-2-phenetoxyadenine] | not able to stimulate cAMP production; also recorded: no increase in cAMP production was detected | 108 ± 23 nM | – | – | –
2 | CCOc1nc2c(N)nc(OCCc3ccccc3)nc2n1CC [Compound 4, 8-ethoxy-9-ethyl-2-phenethoxyadenine] | not able to stimulate cAMP production; also recorded: no increase in cAMP production was detected | 278 ± 49 nM | 6.51 µM | 86 nM | 359 nM
3 | CCn1c(I)nc2c(N)nc(OCCc3ccccc3)nc21 [Compound 5, 9-ethyl-8-iodo-2-phenethoxy-9H-purin-6-amine] | not able to stimulate cAMP production; also recorded: no increase in cAMP production was detected | 114 ± 25 nM | 0.719 µM | 25 nM | 489 nM
